Measurements taken from US20240009191A1, “METHOD AND COMPOSITION FOR THE TREATMENT OF DISEASE” (DIMERIX BIOSCIENCE PTY LTD, priority 2019, published 2024).

Legend:
Assay type in all cases: cell-based
AT1R-CXCR2 heteromer [1] = biological target: T1, AT1R-CXCR2 heteromer (Homo sapiens, UniProt P25025+P30556); assay: BRET Gi coupling, CXCR2/Rluc8, Venus/mGsi and HA-AT1R, pre-treatment with antagonists/inverse agonists; settings: FIGS. 6-15
T1 sequence (P25025 1-360): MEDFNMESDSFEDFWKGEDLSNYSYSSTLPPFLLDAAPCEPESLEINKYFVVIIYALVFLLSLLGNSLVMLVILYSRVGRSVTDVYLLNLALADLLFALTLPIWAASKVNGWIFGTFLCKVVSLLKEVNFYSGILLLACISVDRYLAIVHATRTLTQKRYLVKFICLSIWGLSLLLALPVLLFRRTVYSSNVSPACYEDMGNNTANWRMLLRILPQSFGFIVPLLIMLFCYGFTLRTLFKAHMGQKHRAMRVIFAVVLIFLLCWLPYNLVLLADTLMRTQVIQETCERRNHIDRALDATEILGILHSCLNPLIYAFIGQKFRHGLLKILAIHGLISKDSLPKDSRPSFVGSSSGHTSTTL
T1 sequence (P30556 1-359): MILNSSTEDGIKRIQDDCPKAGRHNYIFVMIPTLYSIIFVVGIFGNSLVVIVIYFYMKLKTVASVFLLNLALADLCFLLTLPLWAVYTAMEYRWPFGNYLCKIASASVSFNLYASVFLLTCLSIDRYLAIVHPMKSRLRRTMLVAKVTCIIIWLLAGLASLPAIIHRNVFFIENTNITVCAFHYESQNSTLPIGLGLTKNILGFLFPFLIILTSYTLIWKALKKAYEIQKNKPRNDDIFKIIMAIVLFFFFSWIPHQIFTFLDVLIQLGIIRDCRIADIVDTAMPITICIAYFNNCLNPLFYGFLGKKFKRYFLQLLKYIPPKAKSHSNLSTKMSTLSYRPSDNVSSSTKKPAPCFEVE
Description: (§1) HEK293FT cells were seeded in 6-well plates at a density of approximately 700,000 cells/well and maintained at 37° C., 5% CO2 in Complete Media (DMEM containing 0.3 mg/ml glutamine, 100 IU/ml penicillin and 100 μg/ml streptomycin (Gibco/Thermo Fisher)) supplemented with 10% fetal calf serum (FCS; Bovogen). Transient transfections were carried out 24 h after seeding using FuGene6™ (Promega) according to manufacturer instructions. 24 h post-transfection, cells were washed with PBS, detached using 0.05% trypsin/0.53 mM EDTA, resuspended in HEPES-buffered phenol red free Complete Media containing 5% FCS and added to a poly-L-lysine-coated white 96-well microplate (Greiner Bio-One). 48 h post-transfection, bioluminescence resonance energy transfer (BRET) assays were carried out following pre-incubation of cells with EnduRen™ (Promega) at a final concentration of 30 μM, at 37° C., 5% CO2 for 2 h. BRET measurements were taken at 37° C. using the LUMlstar™ or CLARIOstar™ (BMG Labtech).
(§2) For antagonist/inverse agonist assays, cells were pre-incubated with EnduRen for 1.5 hours, followed by the addition of vehicle or antagonists/inverse agonists (10 μM) for another 30 minutes.
(§3) The BRET signal observed between interacting proteins is normalized by subtracting the background BRET ratio. […] In the following examples, the second calculation will be used and the signal is described as ligand-induced BRET′. Furthermore, for data shown in FIGS. 4 to 20, all data points in a given set are corrected relative to the final data point prior to agonist treatment, which is fixed to zero. In keys on FIGS. 7 to 20, “>” means “followed by after 50 minutes”, with agonists added at time zero on the x-axes.
(§4) Prior to agonist treatment (added at 0 minutes), a baseline BRET signal was recorded for each of the combinations for 20 minutes. Data were calculated as ligand-induced BRET relative to the ‘vehicle followed by vehicle’ (veh>veh) data set.

AT1R-CXCR2 heteromer [2] = biological target: T1, AT1R-CXCR2 heteromer; assay: BRET trafficking of CXCR2/Rluc8 (Venus/Kras, Rab5, Rab8) with HA-AT1R, pre-treatment with vehicle or antagonists/inverse agonists; settings: 50 minutes after pre-treatment (10 μM)
Description: as §1, §2, §3, §4

AT1R-CXCR2 heteromer [3] = biological target: T2, AT1R-CXCR2 heteromer (Homo sapiens, UniProt P25025+P30556); assay: BRET trafficking of AT1R/Rluc8 (Venus/Kras, Rab5) with unlabelled CXCR2, pre-treatment with vehicle or antagonists/inverse agonists; settings: 50 minutes after pre-treatment (10 μM)
T2 sequence (P30556 1-359): T1 sequence (P30556 1-359)
T2 sequence (P25025 1-360): T1 sequence (P25025 1-360)
Description: as §1, §2, §3, §4

effect of CXCL8 only on CXCR2/Rluc8-Venus/mGsi BRET (AT1R-CXCR2 heteromer [1]; 10 nM CXCL8, 50 minutes after pre-treatment with antagonists/inverse agonists (10 μM)): not being altered
effect of AngII only on CXCR2/Rluc8-Venus/mGsi BRET (AT1R-CXCR2 heteromer [1]; 100 nM AngII, 50 minutes after pre-treatment with antagonists/inverse agonists (10 μM)): completely inhibited
effect of both CXCL8 and AngII combined on CXCR2/Rluc8-Venus/Rab8 BRET (AT1R-CXCR2 heteromer [2]; 10 nM CXCL8 and 100 nM AngII, FIG. 18C, 18E-18H): completely inhibited
effect of AngII on CXCR2/Rluc8-Venus/Kras BRET (AT1R-CXCR2 heteromer [2]; 100 nM AngII only, FIG. 16B, 16D): completely inhibited
effect of AngII on CXCR2/Rluc8-Venus/Rab5 BRET (AT1R-CXCR2 heteromer [2]; 100 nM AngII only, FIG. 17B, 17D): completely inhibited
effect of AngII on CXCR2/Rluc8-Venus/Rab8 BRET (AT1R-CXCR2 heteromer [2]; 100 nM AngII only, FIG. 18B, 18D): completely inhibited
effect of both CXCL8 and AngII combined on AT1R/Rluc8-Venus/Kras BRET (AT1R-CXCR2 heteromer [3]; 10 nM CXCL8 and 100 nM AngII, FIG. 19B-19F): completely inhibited
effect of both CXCL8 and AngII combined on AT1R/Rluc8-Venus/Rab5 BRET (AT1R-CXCR2 heteromer [3]; 10 nM CXCL8 and 100 nM AngII, FIG. 20B-20F): completely inhibited
effect of AngII on AT1R/Rluc8-Venus/Kras BRET (AT1R-CXCR2 heteromer [3]; 100 nM AngII only, FIG. 19A): completely inhibited
effect of AngII on AT1R/Rluc8-Venus/Rab5 BRET (AT1R-CXCR2 heteromer [3]; 100 nM AngII only, FIG. 20A): completely inhibited
SMILES: CCCCC(=O)N(Cc1ccc(-c2ccccc2-c2nnn[nH]2)cc1)[C@H](C(=O)O)C(C)C [valsartan]
effect of CXCL8 and AngII combined on CXCR2/Rluc8-Venus/mGsi BRET (AT1R-CXCR2 heteromer [1]; 10 nM CXCL8 and 100 nM AngII, 50 minutes after pre-treatment with antagonists/inverse agonists (10 μM)): indistinguishable from that observed with CXCL8 only
effect of both CXCL8 and AngII combined on CXCR2/Rluc8-Venus/Kras BRET (AT1R-CXCR2 heteromer [2]; 10 nM CXCL8 and 100 nM AngII, FIG. 16C, 16E-16H): indistinguishable from the effect observed with CXCL8 only
effect of both CXCL8 and AngII combined on CXCR2/Rluc8-Venus/Rab5 BRET (AT1R-CXCR2 heteromer [2]; 10 nM CXCL8 and 100 nM AngII, FIG. 17C, 17E-17H): indistinguishable from the effect observed with CXCL8 only
